Data taken from publication PMC3384522 (Bioconjugate Chemistry, 2011).

Columns and labels:
Format in all cases: binding
[1] = molecular target: T1, Bacillus anthracis DHPS (BaDHPS) (Bacillus anthracis, UniProt Q81VW8)
[2] = molecular target: T1, Bacillus anthracis DHPS (BaDHPS); remark: listed apart in the source
BSA = BSA (Bos taurus, UniProt P02769); test: Incubation of probe in 1% BSA monitored by FP; details: FP absorbance significantly reduced
BSA, sequence (P02769 25-607): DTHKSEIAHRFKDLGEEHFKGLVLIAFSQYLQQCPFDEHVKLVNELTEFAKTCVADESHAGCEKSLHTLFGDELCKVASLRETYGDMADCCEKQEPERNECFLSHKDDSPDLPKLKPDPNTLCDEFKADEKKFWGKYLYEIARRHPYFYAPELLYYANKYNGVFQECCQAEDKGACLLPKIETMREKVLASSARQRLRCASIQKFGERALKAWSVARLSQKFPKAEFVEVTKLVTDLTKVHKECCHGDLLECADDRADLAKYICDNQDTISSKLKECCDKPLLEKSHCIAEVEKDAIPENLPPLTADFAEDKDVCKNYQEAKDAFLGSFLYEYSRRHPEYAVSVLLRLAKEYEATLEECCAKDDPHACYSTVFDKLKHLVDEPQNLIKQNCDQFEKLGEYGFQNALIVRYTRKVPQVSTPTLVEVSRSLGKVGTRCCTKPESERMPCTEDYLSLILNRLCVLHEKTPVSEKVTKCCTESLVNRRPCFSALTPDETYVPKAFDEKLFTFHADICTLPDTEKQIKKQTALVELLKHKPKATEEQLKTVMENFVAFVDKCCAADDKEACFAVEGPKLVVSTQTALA

T1 sequence (Q81VW8 1-280): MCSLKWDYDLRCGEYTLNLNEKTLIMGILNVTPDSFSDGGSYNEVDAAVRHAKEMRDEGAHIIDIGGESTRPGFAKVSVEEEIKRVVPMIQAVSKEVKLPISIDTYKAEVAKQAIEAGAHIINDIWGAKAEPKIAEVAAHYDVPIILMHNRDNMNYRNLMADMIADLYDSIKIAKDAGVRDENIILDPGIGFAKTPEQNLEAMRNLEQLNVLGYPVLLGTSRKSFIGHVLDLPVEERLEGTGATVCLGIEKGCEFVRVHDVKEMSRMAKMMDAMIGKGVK

| Compound | Competitive displacement of FP probe 4 from BaDHPS [1] | Binding site N (ITC) [2] | ΔH (ITC) [2] | Non-specific protein binding (FP in 1% BSA) (BSA) |
| --- | --- | --- | --- | --- |
| Cc1cc(NS(=O)(=O)c2ccc(N)cc2)no1 [SMX, sulfamethoxazole] | not able to compete off the FP probe 4 | – | – | – |
| CC(C(=O)NCCOCCOCCNC(=O)c1ccc2c(c1)C(=O)OC21c2ccc(O)cc2Oc2cc(O)ccc21)c1nn(C)c2nc(N)[nH]c(=O)c2c1=O (centres unmarked) [compound 4, N-(2-(2-(2-(2-(7-Amino-1-methyl-4,5-dioxo-1,4,5,6-tetrahydropyridazino[3,4-d]pyrimidin-3-yl)propanamido)ethoxy)ethoxy)ethyl)-3',6'-dihydroxy-3-oxo-3H-spiro[isobenzofuran-1,9'-xanthene]-5-carboxamide] | – | 1.09 ± 0.0464 | -2.8 ± 0.159 kcal/mol | – |
| Nc1nc(NCCOCCOCCNC(=O)c2ccc3c(c2)C(=O)OC32c3ccc(O)cc3Oc3cc(O)ccc32)c(N=O)c(=O)[nH]1 [compound 3] | – | 1.59 ± 0.0108 | -5.9 ± 0.059 kcal/mol | non-specific protein binder |
| Nc1ccc(S(N)(=O)=O)cc1 [SIA, sulfanilamide] | not able to compete off the FP probe 4 | – | – | – |
| Nc1nc2ncc(CNc3ccc(C(=O)O)cc3)nc2c(=O)[nH]1 [pteroic acid] | able to compete off the FP probe 4 | – | – | – |
